According to the NIST ThermoML archive (doi:10.1021/je0341763):
Numbers after ± are expanded uncertainties.

What was measured:
[1] = 298.15 K; for surface tension liquid-gas: Pendant drop shape; for mass density: 101.33 kPa, Liquid
[2] = xn = mol fraction of the nth substance listed; conditions: 298.15 K, Pendant drop shape

Structure (SMILES): Cc1ccccc1C [1,2-dimethylbenzene]
- surface tension liquid-gas [1]: 29.35 ± 0.3 mN/m
- mass density [1]: 875.92 ± 0.42 kg/m3

Structure (SMILES): Cc1ccccc1C [1,2-dimethylbenzene] + CC(C)=O
- surface tension liquid-gas ([2]; x2 = 0.0995): 29.13 ± 0.3 mN/m
- surface tension liquid-gas ([2]; x2 = 0.2016): 28.84 ± 0.3 mN/m
- surface tension liquid-gas ([2]; x2 = 0.3047): 28.45 ± 0.3 mN/m
- surface tension liquid-gas ([2]; x2 = 0.403): 28.07 ± 0.29 mN/m
- surface tension liquid-gas ([2]; x2 = 0.4999): 27.58 ± 0.29 mN/m
- surface tension liquid-gas ([2]; x2 = 0.6017): 26.99 ± 0.29 mN/m
- surface tension liquid-gas ([2]; x2 = 0.6991): 26.34 ± 0.28 mN/m
- surface tension liquid-gas ([2]; x2 = 0.7998): 25.65 ± 0.28 mN/m
- surface tension liquid-gas ([2]; x2 = 0.9002): 24.86 ± 0.27 mN/m

Structure (SMILES): Cc1cccc(C)c1 [1,3-dimethylbenzene]
- surface tension liquid-gas [1]: 28.36 ± 0.3 mN/m
- mass density [1]: 859.78 ± 0.49 kg/m3

Structure (SMILES): Cc1cccc(C)c1 [1,3-dimethylbenzene] + CC(C)=O
- surface tension liquid-gas ([2]; x2 = 0.1027): 28.16 ± 0.3 mN/m
- surface tension liquid-gas ([2]; x2 = 0.1996): 27.95 ± 0.3 mN/m
- surface tension liquid-gas ([2]; x2 = 0.3049): 27.67 ± 0.29 mN/m
- surface tension liquid-gas ([2]; x2 = 0.4029): 27.31 ± 0.29 mN/m
- surface tension liquid-gas ([2]; x2 = 0.4993): 26.91 ± 0.29 mN/m
- surface tension liquid-gas ([2]; x2 = 0.6024): 26.41 ± 0.28 mN/m
- surface tension liquid-gas ([2]; x2 = 0.7002): 25.86 ± 0.28 mN/m
- surface tension liquid-gas ([2]; x2 = 0.801): 25.27 ± 0.27 mN/m
- surface tension liquid-gas ([2]; x2 = 0.9014): 24.66 ± 0.27 mN/m

Structure (SMILES): Cc1cccc(C)c1 [1,3-dimethylbenzene] + CCC(C)=O
- surface tension liquid-gas ([2]; x2 = 0.1044): 27.99 ± 0.3 mN/m
- surface tension liquid-gas ([2]; x2 = 0.2015): 27.66 ± 0.3 mN/m
- surface tension liquid-gas ([2]; x2 = 0.3028): 27.29 ± 0.29 mN/m
- surface tension liquid-gas ([2]; x2 = 0.4011): 26.93 ± 0.29 mN/m
- surface tension liquid-gas ([2]; x2 = 0.5013): 26.53 ± 0.28 mN/m
- surface tension liquid-gas ([2]; x2 = 0.6009): 26.11 ± 0.28 mN/m
- surface tension liquid-gas ([2]; x2 = 0.6999): 25.68 ± 0.28 mN/m
- surface tension liquid-gas ([2]; x2 = 0.7999): 25.24 ± 0.27 mN/m
- surface tension liquid-gas ([2]; x2 = 0.9): 24.76 ± 0.27 mN/m

Structure (SMILES): Cc1ccc(C)cc1 [1,4-dimethylbenzene]
- surface tension liquid-gas [1]: 27.89 ± 0.29 mN/m
- mass density [1]: 856.85 ± 0.46 kg/m3

Structure (SMILES): Cc1ccc(C)cc1 [1,4-dimethylbenzene] + CC(C)=O
- surface tension liquid-gas ([2]; x2 = 0.1027): 27.69 ± 0.29 mN/m
- surface tension liquid-gas ([2]; x2 = 0.2022): 27.41 ± 0.29 mN/m
- surface tension liquid-gas ([2]; x2 = 0.3029): 27.11 ± 0.29 mN/m
- surface tension liquid-gas ([2]; x2 = 0.3993): 26.78 ± 0.28 mN/m
- surface tension liquid-gas ([2]; x2 = 0.5009): 26.41 ± 0.28 mN/m
- surface tension liquid-gas ([2]; x2 = 0.6006): 25.98 ± 0.28 mN/m
- surface tension liquid-gas ([2]; x2 = 0.7005): 25.51 ± 0.28 mN/m
- surface tension liquid-gas ([2]; x2 = 0.8002): 25.03 ± 0.27 mN/m
- surface tension liquid-gas ([2]; x2 = 0.9007): 24.51 ± 0.27 mN/m

Structure (SMILES): CC(C)=O [acetone]
- surface tension liquid-gas [1]: 24.01 ± 0.26 mN/m
- mass density [1]: 784.39 ± 0.61 kg/m3

Structure (SMILES): CCC(C)=O [butanone]
- surface tension liquid-gas [1]: 24.28 ± 0.27 mN/m
- mass density [1]: 799.62 ± 0.57 kg/m3

Structure (SMILES): CCC(C)=O [butanone] + Cc1ccc(C)cc1
- surface tension liquid-gas ([2]; x1 = 0.0999): 27.58 ± 0.29 mN/m
- surface tension liquid-gas ([2]; x1 = 0.2007): 27.27 ± 0.29 mN/m
- surface tension liquid-gas ([2]; x1 = 0.3001): 26.95 ± 0.29 mN/m
- surface tension liquid-gas ([2]; x1 = 0.402): 26.62 ± 0.28 mN/m
- surface tension liquid-gas ([2]; x1 = 0.5001): 26.28 ± 0.28 mN/m
- surface tension liquid-gas ([2]; x1 = 0.6006): 25.91 ± 0.28 mN/m
- surface tension liquid-gas ([2]; x1 = 0.7009): 25.51 ± 0.28 mN/m
- surface tension liquid-gas ([2]; x1 = 0.8009): 25.12 ± 0.27 mN/m
- surface tension liquid-gas ([2]; x1 = 0.8999): 24.71 ± 0.27 mN/m

Structure (SMILES): CCC(C)=O [butanone] + Cc1ccccc1C
- surface tension liquid-gas ([2]; x1 = 0.1001): 29 ± 0.3 mN/m
- surface tension liquid-gas ([2]; x1 = 0.2028): 28.58 ± 0.3 mN/m
- surface tension liquid-gas ([2]; x1 = 0.3001): 28.17 ± 0.3 mN/m
- surface tension liquid-gas ([2]; x1 = 0.4017): 27.68 ± 0.29 mN/m
- surface tension liquid-gas ([2]; x1 = 0.5006): 27.19 ± 0.29 mN/m
- surface tension liquid-gas ([2]; x1 = 0.6018): 26.65 ± 0.28 mN/m
- surface tension liquid-gas ([2]; x1 = 0.7012): 26.11 ± 0.28 mN/m
- surface tension liquid-gas ([2]; x1 = 0.8006): 25.55 ± 0.28 mN/m
- surface tension liquid-gas ([2]; x1 = 0.8994): 24.96 ± 0.27 mN/m
